From patent publication US20080119412A1, “Polypeptides for Modulating Binding of Trp Channel Proteins and Trp- Associated Proteins” (NoNO Inc., priority 2003, published 2008) come the findings set out here.

Residues, ends and D or L forms follow the SMILES beside them. *: point of attachment. Biotin = O=C1N[C@H]2[C@H](CS[C@H]2CCCCC(=O)*)N1

This assay concerns the target T1, RIM2 d1 (Homo sapiens, UniProt Q9UQ26).
T1 construct: made in house; host or cells: E. coli (DH5alpha, BL21 or JM109)
T1 sequence (Q9UQ26 632-757): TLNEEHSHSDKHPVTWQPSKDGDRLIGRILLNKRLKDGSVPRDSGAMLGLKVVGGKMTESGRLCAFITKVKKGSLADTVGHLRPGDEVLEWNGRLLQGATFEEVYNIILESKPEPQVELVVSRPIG
Briefly: G3 assay titration, GST-PDZ fusion / biotinylated peptide. Type of assay: binding.

For orientation: EC50 means the concentration needed to bring the measured effect to its halfway point. Read a low EC50 as an effect from little substance. Regarding `CSCC[C@H](NC(=O)[C@H](CC(C)C)NC(=O)[C@H](CCCNC(=N)N)NC(=O)[C@@H](NC(=O)[C@H](CO)NC(=O)[C@H](CC(N)=O)NC(=O)[C@@H](NC(=O)[C@H](CO)NC(=O)[C@H](CCCNC(=N)N)NC(=O)[C@H](CCCNC(=N)N)NC(=O)[C@H](CCCNC(=N)N)NC(=O)[C@H](CCC(N)=O)NC(=O)[C@H](CCCNC(=N)N)NC(=O)[C@H](CCCNC(=N)N)NC(=O)[C@H](CCCCN)NC(=O)[C@H](CCCCN)NC(=O)[C@H](CCCNC(=N)N)NC(=O)CNC(=O)[C@H](Cc1ccc(O)cc1)NC(=O)CCCC[C@@H]1SC[C@@H]2NC(=O)N[C@@H]21)[C@@H](C)O)C(C)C)C(=O)N[C@@H](CC(C)C)C(=O)O` [Tat-TRPM7 peptide] (Biotin-YGRKKRRQRRRSTNSVRLML-OH), the concentration for a half-maximal effect (EC50) stood at 0.047 µM.
